Experimental data as given in ChEMBL document CHEMBL2203036, “Discovery of 1-[2-(2,4-dimethylphenylsulfanyl)phenyl]piperazine (Lu AA21004): a novel multimodal compound for the treatment of major depressive disorder” (J Med Chem, 2011).

Legend:
[1] = target: Sodium-dependent serotonin transporter (Rattus norvegicus, UniProt P31652); assay: Inhibition of SERT-mediated [3H]5HT uptake in rat synaptosomes by scintillation counting; type: subcellular, Brain
[2] = target: T1, 5-hydroxytryptamine receptor 1A (Homo sapiens, UniProt P08908); assay: biochemical; type: cell-based, HEK293
T1 sequence (P08908 whole entry): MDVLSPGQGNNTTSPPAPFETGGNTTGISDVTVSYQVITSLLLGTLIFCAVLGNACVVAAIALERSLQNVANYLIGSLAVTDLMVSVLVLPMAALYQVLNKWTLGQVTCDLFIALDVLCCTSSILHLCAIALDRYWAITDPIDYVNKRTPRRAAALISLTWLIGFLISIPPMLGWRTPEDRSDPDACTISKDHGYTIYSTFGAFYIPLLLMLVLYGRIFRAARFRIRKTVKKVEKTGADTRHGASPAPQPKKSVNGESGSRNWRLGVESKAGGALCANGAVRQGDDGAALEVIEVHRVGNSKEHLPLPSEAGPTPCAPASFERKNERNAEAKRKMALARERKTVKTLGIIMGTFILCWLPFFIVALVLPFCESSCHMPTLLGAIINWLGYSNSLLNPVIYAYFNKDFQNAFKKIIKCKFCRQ
Description: Displacement of [3H]5-carboxamidotryptamine to human 5HT1A expressed in HEK293 cells by filter binding assay

[3] = target: T2, 5-hydroxytryptamine receptor 3A (Homo sapiens, UniProt P46098); assay: Displacement of [3H]granisetron from human 5HT3A receptor expressed in HEK293 cells by filter binding assay; type: cell-based
T2 sequence (P46098 whole entry): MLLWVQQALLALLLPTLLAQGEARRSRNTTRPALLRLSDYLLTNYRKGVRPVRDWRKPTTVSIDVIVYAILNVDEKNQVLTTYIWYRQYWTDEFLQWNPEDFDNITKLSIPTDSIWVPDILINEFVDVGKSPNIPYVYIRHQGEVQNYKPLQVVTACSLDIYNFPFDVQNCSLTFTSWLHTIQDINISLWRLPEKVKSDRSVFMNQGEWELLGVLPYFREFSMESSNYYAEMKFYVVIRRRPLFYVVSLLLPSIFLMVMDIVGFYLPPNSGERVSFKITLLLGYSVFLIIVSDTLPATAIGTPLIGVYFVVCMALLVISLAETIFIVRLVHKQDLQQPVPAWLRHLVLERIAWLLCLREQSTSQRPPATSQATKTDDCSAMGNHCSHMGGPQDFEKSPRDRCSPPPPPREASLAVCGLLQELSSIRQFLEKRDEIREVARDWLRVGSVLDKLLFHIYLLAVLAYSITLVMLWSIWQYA

Cytochrome P450 3A4 = Cytochrome P450 3A4 (Homo sapiens, UniProt P08684); assay: Inhibition of human recombinant CYP3A4 using resorufin benzyl ether after 30 mins by fluorescence spectrophotometric analysis; type: ADME
Cytochrome P450 2D6 = Cytochrome P450 2D6 (Homo sapiens, UniProt P10635); assay: Inhibition of human recombinant CYP2D6 using 3-[2-(N,N-diethyl-N-methylamino)ethyl]-7-methoxy- 4-methylcoumarin after 45 mins by fluorescence spectrophotometric analysis; type: ADME
Cytochrome P450 2C9 = Cytochrome P450 2C9 (Homo sapiens, UniProt P11712); assay: Inhibition of human recombinant CYP2C9 using dibenzylfluorescein after 45 mins by fluorescence spectrophotometric analysis; type: ADME
Cytochrome P450 1A2 = target: T3, Cytochrome P450 1A2 (Homo sapiens, UniProt P05177); assay: Inhibition of human recombinant CYP1A2 using 7-ethoxy-3-cyanocoumarin after 28 mins by fluorescence spectrophotometric analysis; type: ADME
T3 sequence (P05177 whole entry): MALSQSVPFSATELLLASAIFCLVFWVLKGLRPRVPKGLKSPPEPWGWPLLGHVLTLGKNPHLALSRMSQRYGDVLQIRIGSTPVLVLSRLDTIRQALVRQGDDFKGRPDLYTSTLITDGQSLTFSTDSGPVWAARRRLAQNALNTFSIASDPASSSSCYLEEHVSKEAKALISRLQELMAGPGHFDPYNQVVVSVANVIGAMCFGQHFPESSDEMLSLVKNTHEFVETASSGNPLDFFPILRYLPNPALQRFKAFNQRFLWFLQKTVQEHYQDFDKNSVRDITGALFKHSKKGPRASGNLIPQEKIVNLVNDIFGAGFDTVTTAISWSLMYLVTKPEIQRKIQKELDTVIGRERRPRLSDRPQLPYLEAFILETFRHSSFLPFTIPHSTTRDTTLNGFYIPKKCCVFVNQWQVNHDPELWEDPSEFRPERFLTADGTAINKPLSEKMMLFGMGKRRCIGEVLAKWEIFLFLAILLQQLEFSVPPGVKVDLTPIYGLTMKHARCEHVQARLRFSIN

Liver microsomes [4] = assay: Intrinsic clearance in rat liver microsomes at 1 uM after 60 mins by LC-MS/MS analysis; type: ADME, Microsome; details: 1 h
Liver microsomes [5] = assay: Intrinsic clearance in human liver microsomes at 1 uM after 60 mins by LC-MS/MS analysis; type: ADME, Microsome; details: 1 h
[6] = Inhibition of NET-mediated [3H]NE in rat synaptosomes by scintillation counting; type: subcellular, Brain
[7] = target: T4, Sodium-dependent dopamine transporter (Rattus norvegicus, UniProt P23977); assay: Inhibition of DAT-mediated [3H]DA in rat synaptosomes by scintillation counting; type: subcellular, Brain
Rattus norvegicus [8] = species on record: Rattus norvegicus; assay: Selectivity ratio of IC50 for NET to IC50 for SERT in rat synaptosomes; details: Brain
Rattus norvegicus [9] = species on record: Rattus norvegicus; assay: Selectivity ratio of IC50 for DAT to IC50 for SERT in rat synaptosomes; details: Brain
[10] = Oral bioavailability in rat at 2 mg/kg; type: ADME, organism-based; details: in vivo
Rattus norvegicus [11] = assay: Hepatic clearance in rat at 1 mg/kg, iv; type: ADME, organism-based, Liver; design: dose 1 mg/kg, route intravenous; details: in vivo
[12] = target: T4, Sodium-dependent dopamine transporter; assay: Inhibition of rat DAT
[13] = Inhibition of rat NET
Rattus norvegicus [14] = species on record: Rattus norvegicus; assay: Selectivity ratio of IC50 for rat DAT to IC50 for SERT in rat synaptosomes; details: Brain
Rattus norvegicus [15] = species on record: Rattus norvegicus; assay: Selectivity ratio of IC50 for rat NET to IC50 for SERT in rat synaptosomes; details: Brain
Rattus norvegicus [16] = assay: Antidepression activity in sc dosed Harlan rat assessed as increase in extracellular 5HT level in ventral hippocampus region measured up to 180 mins by microdialysis method relative to vehicle-treated control; type: functional

Cytochrome P450 2C9, sequence (P11712 whole entry): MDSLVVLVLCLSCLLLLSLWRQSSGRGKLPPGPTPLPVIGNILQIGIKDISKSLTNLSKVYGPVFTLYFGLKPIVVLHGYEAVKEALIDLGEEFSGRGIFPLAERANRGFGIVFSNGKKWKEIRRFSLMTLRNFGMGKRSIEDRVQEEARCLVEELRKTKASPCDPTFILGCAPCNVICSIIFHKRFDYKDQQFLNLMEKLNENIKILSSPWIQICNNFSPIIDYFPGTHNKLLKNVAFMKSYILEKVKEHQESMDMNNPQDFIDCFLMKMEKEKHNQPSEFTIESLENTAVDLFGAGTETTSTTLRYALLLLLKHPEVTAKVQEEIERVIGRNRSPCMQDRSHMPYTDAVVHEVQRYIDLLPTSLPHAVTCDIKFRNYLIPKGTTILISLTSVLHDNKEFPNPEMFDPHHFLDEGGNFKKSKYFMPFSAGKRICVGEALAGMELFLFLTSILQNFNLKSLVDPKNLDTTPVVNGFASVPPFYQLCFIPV
Sodium-dependent serotonin transporter, sequence (P31652 whole entry): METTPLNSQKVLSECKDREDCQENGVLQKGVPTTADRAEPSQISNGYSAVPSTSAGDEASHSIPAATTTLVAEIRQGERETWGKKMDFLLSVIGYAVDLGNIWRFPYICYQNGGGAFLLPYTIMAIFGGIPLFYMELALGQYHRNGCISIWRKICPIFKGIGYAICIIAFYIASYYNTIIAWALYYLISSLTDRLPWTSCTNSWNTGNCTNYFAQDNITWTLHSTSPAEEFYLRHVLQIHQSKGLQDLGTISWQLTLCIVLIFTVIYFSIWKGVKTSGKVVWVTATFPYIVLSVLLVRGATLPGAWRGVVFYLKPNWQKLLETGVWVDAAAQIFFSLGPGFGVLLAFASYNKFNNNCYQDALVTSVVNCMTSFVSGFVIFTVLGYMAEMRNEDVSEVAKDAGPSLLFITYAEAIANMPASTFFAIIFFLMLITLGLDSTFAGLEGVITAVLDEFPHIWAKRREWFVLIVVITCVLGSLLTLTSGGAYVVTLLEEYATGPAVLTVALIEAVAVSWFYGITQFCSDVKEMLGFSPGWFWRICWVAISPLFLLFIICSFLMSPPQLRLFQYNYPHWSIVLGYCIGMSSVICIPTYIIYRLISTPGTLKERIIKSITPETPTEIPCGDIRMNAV
T4 sequence (P23977 whole entry): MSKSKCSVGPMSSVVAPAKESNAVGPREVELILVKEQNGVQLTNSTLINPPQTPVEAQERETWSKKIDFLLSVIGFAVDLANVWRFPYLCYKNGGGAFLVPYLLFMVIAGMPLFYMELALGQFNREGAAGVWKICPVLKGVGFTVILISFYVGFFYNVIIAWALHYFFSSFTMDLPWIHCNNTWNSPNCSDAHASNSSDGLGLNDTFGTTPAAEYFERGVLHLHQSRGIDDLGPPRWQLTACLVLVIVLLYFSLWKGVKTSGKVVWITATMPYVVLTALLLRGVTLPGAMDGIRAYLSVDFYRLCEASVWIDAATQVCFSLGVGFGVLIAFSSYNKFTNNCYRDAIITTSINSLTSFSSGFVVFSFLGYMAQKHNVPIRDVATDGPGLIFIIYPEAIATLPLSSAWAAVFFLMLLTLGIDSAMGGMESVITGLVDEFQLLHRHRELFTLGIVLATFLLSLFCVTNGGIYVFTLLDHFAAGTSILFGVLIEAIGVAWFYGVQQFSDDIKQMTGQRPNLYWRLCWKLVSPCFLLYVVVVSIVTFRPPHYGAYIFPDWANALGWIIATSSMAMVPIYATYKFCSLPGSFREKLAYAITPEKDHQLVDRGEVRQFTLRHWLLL
Cytochrome P450 2D6, sequence (P10635 whole entry): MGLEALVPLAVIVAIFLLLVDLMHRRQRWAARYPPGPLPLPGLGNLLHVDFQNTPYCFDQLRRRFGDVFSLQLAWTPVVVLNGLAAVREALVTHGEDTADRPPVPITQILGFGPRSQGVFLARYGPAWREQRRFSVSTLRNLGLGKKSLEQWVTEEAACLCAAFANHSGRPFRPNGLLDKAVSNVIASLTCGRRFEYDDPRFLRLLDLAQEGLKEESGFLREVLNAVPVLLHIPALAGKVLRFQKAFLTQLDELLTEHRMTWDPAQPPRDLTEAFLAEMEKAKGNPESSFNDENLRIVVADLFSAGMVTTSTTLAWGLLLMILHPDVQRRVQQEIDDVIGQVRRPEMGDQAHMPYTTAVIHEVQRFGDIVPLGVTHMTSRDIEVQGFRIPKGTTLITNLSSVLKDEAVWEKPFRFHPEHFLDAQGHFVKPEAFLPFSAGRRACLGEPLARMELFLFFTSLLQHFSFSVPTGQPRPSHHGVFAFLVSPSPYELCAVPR
Cytochrome P450 3A4, sequence (P08684 whole entry): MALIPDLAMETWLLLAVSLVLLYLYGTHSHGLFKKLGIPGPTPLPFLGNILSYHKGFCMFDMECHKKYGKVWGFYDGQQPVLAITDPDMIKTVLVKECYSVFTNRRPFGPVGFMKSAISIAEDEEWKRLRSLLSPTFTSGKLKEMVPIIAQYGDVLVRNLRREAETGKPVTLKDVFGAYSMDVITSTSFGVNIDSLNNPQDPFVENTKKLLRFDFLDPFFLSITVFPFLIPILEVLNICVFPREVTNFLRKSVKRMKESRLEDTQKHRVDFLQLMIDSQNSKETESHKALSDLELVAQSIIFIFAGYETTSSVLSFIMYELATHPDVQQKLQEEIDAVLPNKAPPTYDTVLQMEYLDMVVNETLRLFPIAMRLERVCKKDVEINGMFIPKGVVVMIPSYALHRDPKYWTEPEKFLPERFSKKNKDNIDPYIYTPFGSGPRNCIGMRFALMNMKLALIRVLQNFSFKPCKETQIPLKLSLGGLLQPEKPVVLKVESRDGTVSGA

Which results are given for `c1ccc(Sc2ccccc2N2CCNCC2)cc1`?
IC50 [1]: 390 nM; Ki [2]: 30 nM; Ki [3]: 64 nM

Which IC50 [1] does the source give for `Fc1ccc(Sc2ccccc2N2CCNCC2)cc1` here?
The IC50 was 67 nM.

And the Ki [2]?
Its Ki is 39 nM.

What about the Ki [3] of the same compound?
Its Ki is 53 nM.

Which IC50 (Cytochrome P450 3A4) does the source give for `Cc1ccc(Sc2ccccc2N2CCNCC2)cc1.Cl` here?
The IC50 was 16000 nM.

What about the IC50 (Cytochrome P450 2D6) of the same compound?
Its IC50 is 2700 nM.

And the IC50 (Cytochrome P450 2C9)?
Its IC50 is 40000 nM.

And the IC50 (Cytochrome P450 1A2)?
Its IC50 is 40000 nM.

What about the CLH (Liver microsomes [4]) of the same compound?
The CLH was 260 mL/min.

And the CLH (Liver microsomes [5])?
Its CLH is 1.1 L/min.

What about the IC50 [6] of the same compound?
The IC50 was 460 nM.

What about the IC50 [7] of the same compound?
The IC50 was 110 nM.

And the IC50 [1]?
Its IC50 is 18 nM.

And the Ki [2]?
The Ki was 44 nM.

What about the Ki [3] of the same compound?
The Ki was 56 nM.

And the Ratio IC50 (Rattus norvegicus [8])?
Its Ratio IC50 is 25.

And the Ratio IC50 (Rattus norvegicus [9])?
Its Ratio IC50 is 6.1.

What does the source list for `Cc1ccc(Sc2ccccc2N2CCN(C)CC2)c(C)c1`?
IC50 [1]: 680 nM; Ki [2]: 120 nM; Ki [3]: 130 nM

Which bioavailability [10] does the source give for `Cl.Clc1ccc(Sc2ccccc2N2CCNCC2)cc1` here?
Its bioavailability is 26%.

What about the CLH (Rattus norvegicus [11]) of the same compound?
Its CLH is 96.7 mL/min/kg.

And the IC50 (Cytochrome P450 3A4)?
The IC50 was 6800 nM.

And the IC50 (Cytochrome P450 2D6)?
The IC50 was 400 nM.

And the IC50 (Cytochrome P450 2C9)?
The IC50 was 31000 nM.

And the IC50 (Cytochrome P450 1A2)?
Its IC50 is 53000 nM.

And the CLH (Liver microsomes [4])?
Its CLH is 70 mL/min.

What about the CLH (Liver microsomes [5]) of the same compound?
The CLH was 0.6 L/min.

And the IC50 [12]?
Its IC50 is 45 nM.

And the IC50 [13]?
Its IC50 is 190 nM.

What about the IC50 [6] of the same compound?
Its IC50 is 160 nM.

What about the IC50 [7] of the same compound?
Its IC50 is 37 nM.

What about the IC50 [1] of the same compound?
Its IC50 is 13 nM.

And the Ki [2]?
Its Ki is 69 nM.

And the Ki [3]?
Its Ki is 36 nM.

What about the Ratio IC50 (Rattus norvegicus [8]) of the same compound?
Its Ratio IC50 is 12.

What about the Ratio IC50 (Rattus norvegicus [9]) of the same compound?
The Ratio IC50 was 2.8.

And the Ratio IC50 (Rattus norvegicus [14])?
Its Ratio IC50 is 3.5.

What about the Ratio IC50 (Rattus norvegicus [15]) of the same compound?
Its Ratio IC50 is 15.

Which Ki [3] does the source give for `O=C1CC2(CCCC2)CC(=O)N1CCCCN1CCN(c2ncccn2)CC1` [BUSPIRONE] here?
Its Ki is greater than 10000 nM.

What does the source list for `COc1ccc(Sc2ccccc2N2CCNCC2)c(Cl)c1`?
IC50 [1]: 4.3 nM; Ki [2]: 94 nM; Ki [3]: 12 nM

Which IC50 [1] does the source give for `COc1cc(C)ccc1Sc1ccccc1N1CCNCC1` here?
Its IC50 is 11 nM.

And the Ki [2]?
Its Ki is 210 nM.

What about the Ki [3] of the same compound?
The Ki was 17 nM.

What does the source list for `Cc1cccc(Sc2ccccc2N2CCNCC2)c1C`?
IC50 (Cytochrome P450 1A2): 24000 nM; IC50 [7]: 170 nM; IC50 [1]: 4.4 nM; Ki [3]: 29 nM; Ratio IC50 (Rattus norvegicus [8]): 20; Ratio IC50 (Rattus norvegicus [9]): 38

For `Cc1ccccc1Sc1ccccc1N1CCNCC1`, which IC50 [1] is on record?
The IC50 was 51 nM.

And the Ki [2]?
Its Ki is 14 nM.

What about the Ki [3] of the same compound?
The Ki was 32 nM.

With `CN(C)CCC[C@@]1(c2ccc(F)cc2)OCc2cc(C#N)ccc21` [ESCITALOPRAM] as the compound, how does the Activity (Rattus norvegicus [16]) read?
Its Activity is 700%.

Which results are given for `FC(F)(F)c1ccc(Sc2ccccc2N2CCNCC2)cc1`?
IC50 [1]: 6.9 nM; Ki [2]: 240 nM; Ki [3]: 140 nM

What does the source list for `Cc1ccc(Sc2ccccc2N2CCNCC2)cc1C.Cl`?
IC50 (Cytochrome P450 3A4): 11000 nM; IC50 (Cytochrome P450 2D6): 2800 nM; IC50 (Cytochrome P450 2C9): 34000 nM; IC50 (Cytochrome P450 1A2): 26000 nM; CLH (Liver microsomes [4]): 290 mL/min; CLH (Liver microsomes [5]): 0.5 L/min; IC50 [6]: 880 nM; IC50 [7]: 120 nM; IC50 [1]: 5.8 nM; Ki [2]: 53 nM; Ki [3]: 33 nM; Ratio IC50 (Rattus norvegicus [8]): 150; Ratio IC50 (Rattus norvegicus [9]): 21

Which results are given for `COc1ccc(Sc2ccccc2N2CCNCC2)cc1OC`?
IC50 [1]: 15 nM; Ki [2]: 160 nM; Ki [3]: 86 nM

What does the source list for `Clc1ccc(Sc2ccccc2N2CCNCC2)cc1Cl`?
IC50 [1]: 4.7 nM; Ki [2]: 68 nM; Ki [3]: 110 nM

For `Cc1ccc(Sc2ccc(C)cc2N2CCNCC2)c(C)c1`, which IC50 [1] is on record?
The IC50 was 25 nM.

And the Ki [3]?
The Ki was 150 nM.

For `COc1ccc(Sc2ccccc2N2CCNCC2)cc1`, which IC50 [1] is on record?
Its IC50 is 8 nM.

What about the Ki [2] of the same compound?
Its Ki is 130 nM.

And the Ki [3]?
Its Ki is 36 nM.

Which IC50 [1] does the source give for `Cc1ccc(Sc2ccc(C)cc2N2CCNCC2)cc1` here?
The IC50 was 20 nM.

And the Ki [2]?
The Ki was 2800 nM.

And the Ki [3]?
Its Ki is 260 nM.
